Test results: patent US20230348426A1, “OXOPYRROLIDINE FPR2 AGONISTS” (Bristol-Myers Squibb Company, priority 2020, published 2023)

Legend:
human FPR2 = human FPR2 (Homo sapiens (Human), UniProt P25090); assay: FPR2 cyclic adenosine monophosphate (cAMP) assay; assay type: cell-based; settings: CHO cells overexpressing human FPR2; forskolin 5 µM; inhibition of cAMP production; read-out: hFPR2 cAMP2 EC50
In short: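 Inhibition of forskolin-driven (5 µM) cAMP, with 200 µM IBMX, measured in human FPR2-expressing CHO cells, 2,000 per well, 30 min at room temperature; compounds tested 0.020 nM to 100 µM in 1% DMSO. HTRF 665/590 ratio converted to cAMP via calibration curve, then 4-parameter fit.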

human FPR1 = human FPR1 (Homo sapiens (Human), UniProt P21462); assay: FPR1 cyclic adenosine monophosphate (cAMP) assay; assay type: cell-based; settings: CHO cells overexpressing human FPR1; forskolin 10 µM; inhibition of cAMP production; read-out: hFPR1 cAMP EC50
In short: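 Human FPR1-expressing CHO cells were used at 4,000 per well, with compound at 0.020 nM–100 µM in 1% DMSO. Potency came from a 4-parameter logistic fit.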

human FPR1, sequence (P21462 whole entry): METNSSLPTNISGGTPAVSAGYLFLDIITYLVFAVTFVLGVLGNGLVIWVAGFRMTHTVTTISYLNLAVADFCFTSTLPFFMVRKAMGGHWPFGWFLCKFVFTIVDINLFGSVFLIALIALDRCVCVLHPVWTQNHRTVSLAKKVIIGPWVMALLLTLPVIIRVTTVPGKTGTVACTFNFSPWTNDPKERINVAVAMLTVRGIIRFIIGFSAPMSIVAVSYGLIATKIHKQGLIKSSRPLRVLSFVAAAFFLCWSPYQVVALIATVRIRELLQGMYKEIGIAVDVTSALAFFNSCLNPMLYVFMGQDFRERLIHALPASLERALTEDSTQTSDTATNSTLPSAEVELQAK
human FPR2, sequence (P25090 whole entry): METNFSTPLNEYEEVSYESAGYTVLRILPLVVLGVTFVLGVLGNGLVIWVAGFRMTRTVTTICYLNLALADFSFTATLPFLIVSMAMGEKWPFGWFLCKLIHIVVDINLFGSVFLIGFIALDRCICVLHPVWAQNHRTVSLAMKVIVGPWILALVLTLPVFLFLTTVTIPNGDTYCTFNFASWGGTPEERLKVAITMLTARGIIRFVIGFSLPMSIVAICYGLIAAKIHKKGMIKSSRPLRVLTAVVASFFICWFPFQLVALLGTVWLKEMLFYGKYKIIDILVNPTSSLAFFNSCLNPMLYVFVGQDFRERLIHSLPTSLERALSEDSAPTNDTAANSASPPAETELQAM

SMILES | EC50 (human FPR2) [nM] | EC50 (human FPR1) [nM]
COc1ccc([C@@H]2CN(c3cccn(CC(C)O)c3=O)C(=O)[C@H]2NC(=O)c2ccc(OC(F)(F)F)cc2)c(F)c1 (stereo partly shown) [Example 435] | 2.8 | 4
COc1ccc([C@@H]2CN(c3cccn(CC(C)O)c3=O)C(=O)[C@H]2NC(=O)c2ccc(OC(F)F)cc2)c(F)c1 (stereo partly shown) [Example 436] | < 5 | 9
COCC(CO)n1cccc(N2C[C@@H](c3ccc(OC)cc3F)[C@H](NC(=O)c3ccc(OC(F)(F)F)cc3)C2=O)c1=O (stereo partly shown) [Example 437] | 1 | 1
COCC(CO)n1cccc(N2C[C@@H](c3ccc(OC)cc3F)[C@H](NC(=O)c3ccc(OC(F)F)cc3)C2=O)c1=O (stereo partly shown) [Example 438] | 3.9 | 7
Cc1ccn(CC2CC2)c(=O)c1N1C[C@@H](c2ccc(Cl)cc2)[C@H](NC(=O)c2ccc(OC(F)F)cc2)C1=O [Example 442] | 9.6 | 1
COc1cc(F)c([C@@H]2CN(c3cc4c(n(CCO)c3=O)CCCC4)C(=O)[C@H]2NC(=O)c2ccc(OC(F)F)cc2)c(F)c1 [Example 446] | < 5 | 3
COc1cc(F)c([C@@H]2CN(c3nccc(NCC4CCCO4)c3C(F)(F)F)C(=O)[C@H]2NC(=O)c2ccc(Cl)cc2)c(F)c1 (stereo partly shown) [Example 447] | 4.7 | 2800
COCC(C(=O)N1CC[C@@H](O)C1)n1cccc(N2C[C@@H](c3c(F)cc(OC)cc3F)[C@H](NC(=O)c3ccc(OC(F)F)cc3)C2=O)c1=O (stereo partly shown) [Example 448] | 8 | 9
COc1cc(F)c([C@@H]2CN(c3nccc(NCCS(C)(=O)=O)c3C(F)(F)F)C(=O)[C@H]2NC(=O)c2ccc(Cl)cc2)c(F)c1 [Example 451] | 2 | 1900
COCC(CO)n1nccc(N2C[C@@H](c3c(F)cc(OC)cc3F)[C@H](NC(=O)c3ccc(OC(F)(F)F)cc3)C2=O)c1=O (stereo partly shown) [Example 452] | 9.6 | 4
COc1cc(F)c([C@@H]2CN(c3c(C)ccn(C(F)(F)CO)c3=O)C(=O)[C@H]2NC(=O)c2ccc(OC(F)F)cc2)c(F)c1 [Example 454] | 4.4 | 17
COc1cc(F)c([C@@H]2CN(c3c(C)ccn(CC4CCOCC4)c3=O)C(=O)[C@H]2NC(=O)c2ccc(OC(F)(F)F)cc2)c(F)c1 [Example 456] | 2.8 | 1
COc1cc(F)c([C@@H]2CN(c3c(C)ccn(CC4CCOCC4)c3=O)C(=O)[C@H]2NC(=O)c2ccc(OC(F)F)cc2)c(F)c1 [Example 457] | 3.2 | 2
COc1ccc([C@@H]2CN(c3c(C)ccn(CC4CC4)c3=O)C(=O)[C@H]2NC(=O)c2ccc(OC(F)F)cc2)cc1 [Example 459] | 0.9 | 0.2
CCn1c2c(cc(N3C[C@@H](c4c(F)cc(OC)cc4F)[C@H](NC(=O)c4ccc(OC(F)F)cc4)C3=O)c1=O)CCCC2 [Example 460] | 1.4 | 1
COCCn1c2c(cc(N3C[C@@H](c4c(F)cc(OC)cc4F)[C@H](NC(=O)c4ccc(Cl)cc4)C3=O)c1=O)CCCC2 [Example 461] | 3.7 | 3
CCn1c2c(cc(N3C[C@@H](c4c(F)cc(OC)cc4F)[C@H](NC(=O)c4ccc(Cl)cc4)C3=O)c1=O)CCCC2 [Example 464] | 1.6 | 4
COc1ccc([C@@H]2CN(c3cccn(CC(O)C(F)(F)F)c3=O)C(=O)[C@H]2NC(=O)c2ccc(OC(F)F)cc2)c(F)c1 (stereo partly shown) [Example 465] | 2.9 | 13
COc1cc(F)c([C@@H]2CN(c3ccnn(CC(O)C(F)(F)F)c3=O)C(=O)[C@H]2NC(=O)c2ccc(OC(F)(F)F)cc2)c(F)c1 (stereo partly shown) [Example 466] | 3 | 4
COc1cc(F)c([C@@H]2CN(c3cncn(CC(C)O)c3=O)C(=O)[C@H]2NC(=O)c2ccc(OC(F)F)cc2)c(F)c1 (stereo partly shown) [Example 467] | 1.8 | 1500
COc1cc(F)c([C@@H]2CN(c3c(C)ccn(CCS(C)(=O)=O)c3=O)C(=O)[C@H]2NC(=O)c2ccc(OC(F)(F)F)cc2)c(F)c1 [Example 469] | 1.4 | 2
COc1cc(F)c([C@@H]2CN(c3c(C)ccn(CCS(C)(=O)=O)c3=O)C(=O)[C@H]2NC(=O)c2ccc(OC(F)F)cc2)c(F)c1 [Example 470] | 1.9 | 8
COCCn1ncc(C)c(N2C[C@@H](c3c(F)cc(OC)cc3F)[C@H](NC(=O)c3ccc(OC(F)(F)F)cc3)C2=O)c1=O [Example 471] | 1.1 | 2
COCCn1ncc(C)c(N2C[C@@H](c3c(F)cc(OC)cc3F)[C@H](NC(=O)c3ccc(OC(F)F)cc3)C2=O)c1=O [Example 472] | 1.2 | 1.7

Continued by falling EC50 (human FPR2), values first:

EC50 (human FPR2) [nM] | EC50 (human FPR1) [nM] | SMILES
5.5 | 7 | CC(O)Cn1cccc(N2C[C@@H](c3ccc(Cl)cc3)[C@H](NC(=O)c3ccc(OC(F)(F)F)cc3)C2=O)c1=O (stereo partly shown) [Example 439]
5.2 | 3 | COCC(C(=O)N1CCOCC1)n1cccc(N2C[C@@H](c3ccc(OC)cc3)[C@H](NC(=O)c3ccc(OC(F)F)cc3)C2=O)c1=O (stereo partly shown) [Example 441]
5.1 | 2 | Cc1ccn(CC(F)F)c(=O)c1N1C[C@@H](c2ccc(Cl)cc2)[C@H](NC(=O)c2ccc(OC(F)(F)F)cc2)C1=O [Example 443]
4.2 | 620 | COc1cc(F)c([C@H]2[C@H](NC(=O)c3ccc(OC(F)F)cc3)C(=O)N(c3cccn(CCO)c3=O)[C@H]2C)c(F)c1 [Example 445]
3.9 | 6 | COc1cc(F)c([C@@H]2CN(c3c(C)ccn(C4COC4)c3=O)C(=O)[C@H]2NC(=O)c2ccc(OC(F)(F)F)cc2)c(F)c1 [Example 463]
3.5 | 0.2 | COCC(CO)n1ccc(C)c(N2C[C@@H](c3ccc(OC)cc3)[C@H](NC(=O)c3ccc(OC(F)(F)F)cc3)C2=O)c1=O (stereo partly shown) [Example 449]
3 | 3 | COc1cc(F)c([C@@H]2CN(c3c(C)ccn(CC4CC4)c3=O)C(=O)[C@H]2NC(=O)c2ccc(Cl)cc2)c(F)c1 [Example 450]
2.9 | 10 | COc1cc(F)c([C@@H]2CN(c3c(C)ccn(CC#N)c3=O)C(=O)[C@H]2NC(=O)c2ccc(OC(F)(F)F)cc2)c(F)c1 [Example 455]
2.1 | 18 | COc1cc(F)c([C@@H]2CN(c3ccnn(CCC(F)(F)F)c3=O)C(=O)[C@H]2NC(=O)c2ccc(OC(F)F)cc2)c(F)c1 [Example 468]
2.1 | 4 | COc1cc(F)c([C@@H]2CN(c3ccnn(CC(F)F)c3=O)C(=O)[C@H]2NC(=O)c2ccc(OC(F)F)cc2)c(F)c1 [Example 474]
1.8 | 1 | COCC(C(=O)N1CCCC1)n1cccc(N2C[C@@H](c3ccc(OC)cc3)[C@H](NC(=O)c3ccc(OC(F)F)cc3)C2=O)c1=O (stereo partly shown) [Example 444]
1.8 | 2 | COc1cc(F)c([C@@H]2CN(c3ccnn(CC(F)F)c3=O)C(=O)[C@H]2NC(=O)c2ccc(OC(F)(F)F)cc2)c(F)c1 [Example 473]
1.3 | 11 | COc1ccc([C@@H]2CN(c3cccn(CC(C)O)c3=O)C(=O)[C@H]2NC(=O)c2ccc(OC(F)(F)F)cc2)cc1 (stereo partly shown) [Example 440]
1.2 | 0.8 | COc1cc(F)c([C@@H]2CN(c3c(C)ccn(C4CCC4)c3=O)C(=O)[C@H]2NC(=O)c2ccc(OC(F)(F)F)cc2)c(F)c1 [Example 458]
